Results from patent publication US4603217A, “Ester substituted alkyl-2-(2,6-dichloroanilino)phenyl acetates” (priority 1983, dated 1986).

Experiments:
carrageenan edema = test: inhibition test of carrageenan edema employing a foot-pad edema method; assay type: in vivo, male Wister rats; conditions: for ED50: Rattus norvegicus, male Wister rats, foot-pad edema, read-out: ED50 for inhibition for carrageenan edema; for anti-inflammatory activity compared with DF: relative to DF
Excerpt: Anti-inflammatory action was investigated according to the method of Winter et al [cf. Pro. Soc. Exp. Biol. Med., 111, 544 (1962)] by the inhibition test of carrageenan edema employing a foot-pad edema method using carrageenan as an irritating agent and male Wister rats weighing 130 to 170 g.

in vivo [1] = conditions: rat, po
Procedure: Gastrointestinal ulcer formation action, which is a principal side effect of an acid anti-inflammatory drug, was investigated according to the method of Okabe et al [cf. […] The compounds of the present invention, IM, DF and acemethacin were suspended in 5% Tween-80 solution and administered orally 1 ml/100 g body weight to the rats, respectively. At 6 hrs after the administration, the state of glandstomach was observed by means of a dissecting microscope whether the ulcer having a diameter more than 1 mm was generated or not.

[2] = Rate of hydrolysis in rat plasma; assay type: in vitro ADME; conditions: in 1 ml of plasma rat (37° C., incubation for 1 hr)
Procedure: **in 1 ml of plasma rat (37° C., incubation for 1 hr)

in vivo [3] = conditions: mouse, po
ultraviolet erythema = test: inhibition action for ultraviolet erythema; assay type: in vivo, male Hartley guinea pigs; set-up: 2 hs after the irradiation, Average ± standard error / 3 hs after the irradiation, Average ± standard error / 5 hs after the irradiation, Average ± standard error: scale not given here; 2 hs after the irradiation, Rate for inhibition / 3 hs after the irradiation, Rate for inhibition / 5 hs after the irradiation, Rate for inhibition: unit not given here; conditions: for 2 hs after the irradiation, Average ± standard error / 2 hs after the irradiation, Rate for inhibition: 2 hs after irradiation; for 2 hs after the irradiation, Average ± standard error / 2 hs after the irradiation, Rate for inhibition / 3 hs after the irradiation, Average ± standard error / 3 hs after the irradiation, Rate for inhibition / 5 hs after the irradiation, Average ± standard error / 5 hs after the irradiation, Rate for inhibition: guinea pigs; for 3 hs after the irradiation, Average ± standard error / 3 hs after the irradiation, Rate for inhibition: 3 hs after irradiation; for 5 hs after the irradiation, Average ± standard error / 5 hs after the irradiation, Rate for inhibition: 5 hs after irradiation
Procedure: With respect to Compounds 1 to 3, 15 and 21 which are especially useful as an anti-inflammatory drug, IM and DF, inhibition action for ultraviolet erythema was investigated according to the method of Adames et al [cf. Nature, London, 181, 773 (1958)] using guinea pigs as follows: Male Hartley guinea pigs weighing 250 to 350 g were shaved at their sides the day before and two hrs before the ultraviolet irradiation. To the guinea pigs were administered orally Compounds 1 to 3, 15 and 21, IM and DF in amounts as described in Table 2, respectively. To the control group was administered orally only Tween-80. At 1 hr after the time of administration, the guinea pigs were irradiated at their shaved sides by ultraviolet beam for 40 seconds.
The reaction of the ultraviolet erythema was evaluated at 2 hrs, 3 hrs and 5 hrs after irradiation according to the method of Winder et al [cf. Arch. Int. Pharmacodyn., 116, 261 (1958)]. […] Compounds 1 and 2 show a duration of the pharmacological effect over 5 hrs, contrary to that IM has a duration of 2 hrs.

Compound | ED50 (carrageenan edema) [mg/kg] | TD50 at 6 h (in vivo [1]) [mg/kg] | metabolised at 1 h [2] [%] | LD50 (in vivo [3]) [mg/kg] | anti-inflammatory activity compared with DF (carrageenan edema) | other results
CC(C)=CC(=O)OCCOC(=O)Cc1ccccc1Nc1c(Cl)cccc1Cl [Compound 17, 2-(3,3-Dimethylacryloyloxy)ethyl-2-(2,6-dichloroanilino)phenylacetate] | 30 | 30 | 78.4 | 400 | – | –
COc1ccc2c(c1)c(CC(=O)OCC(=O)O)c(C)n2C(=O)c1ccc(Cl)cc1 [Acemethacin, acemethacin, reference compound] | 8.3 | – | 4.2 | 45 | – | TD50 at 6 h (in vivo [1]; in vivo): 17.5 mg/kg
CC(=O)OC(C)OC(=O)Cc1ccccc1Nc1c(Cl)cccc1Cl (stereo not drawn) [Compound 18, 1-(Acetoxy)ethyl-2-(2,6-dichloroanilino)-phenylacetate] | 20 | 30 | 96.1 | 295 | almost equal anti-inflammatory activity to DF | –
CCC(=O)OC(C)OC(=O)Cc1c(C)n(C(=O)c2ccc(Cl)cc2)c2ccc(OC)cc12 (stereo not drawn) [Compound 9, 1-(Propionyloxy)ethyl[1-(p-chlorobenzoyl)-5-methoxy-2-methyl-3-indolyl]acetate] | 6 | 20 | 97.3 | 65 | – | –
C/C=C/C(=O)OCCOC(=O)Cc1c(C)n(C(=O)c2ccc(Cl)cc2)c2ccc(OC)cc12 [Compound 4] | 15 | 40 | 83 | 85 | – | –
COc1ccc2c(c1)c(CC(=O)OC(C)OC(=O)C=C(C)C)c(C)n2C(=O)c1ccc(Cl)cc1 (stereo not drawn) [Compound 11, 1-(3,3-Dimethylacryloyloxy)ethyl[1-(p-chlorobenzoyl)-5-methoxy-2-methyl-3-indolyl]acetate] | 15 | 10 | 85.4 | 45 | – | –
C/C=C/C(=O)OC(C)OC(=O)Cc1ccccc1Nc1c(Cl)cccc1Cl (stereo not drawn) [Compound 19, 1-(Crotonoyloxy)ethyl-2-(2,6-dichloroanilino)phenylacetate] | < 30 | 30 | 86 | 380 | – | –
COc1ccc2c(c1)c(CC(=O)OCCOC(=O)C=C(C)C)c(C)n2C(=O)c1ccc(Cl)cc1 [Compound 5, 2-(3,3-Dimethylacryloyloxy)ethyl[1-(p-chlorobenzoyl)-5-methoxy-2-methyl-3-indolyl]acetate] | 15 | 40 | 75.3 | 62 | – | –
CC=CC=CC(=O)OCOC(=O)Cc1ccccc1Nc1c(Cl)cccc1Cl [Compound 15, 2,4-Hexadienoyloxymethyl-2-(2,6-dichloroanilino)phenylacetate] | 20 | – | 80.5 | 500 | almost equal anti-inflammatory activity to DF | 2 hs after the irradiation, Average ± standard error (ultraviolet erythema; 3 mg/kg orally): 1.17 ± 0.167; 2 hs after the irradiation, Rate for inhibition (ultraviolet erythema; 3 mg/kg orally): 56.2; 3 hs after the irradiation, Average ± standard error (ultraviolet erythema; 3 mg/kg orally): 2.0 ± 0.258; 3 hs after the irradiation, Rate for inhibition (ultraviolet erythema; 3 mg/kg orally): 29.3; 5 hs after the irradiation, Average ± standard error (ultraviolet erythema; 3 mg/kg orally): 3.00 ± 0; 5 hs after the irradiation, Rate for inhibition (ultraviolet erythema; 3 mg/kg orally): 0; 2 hs after the irradiation, Average ± standard error (ultraviolet erythema; 10 mg/kg orally): 0.67 ± 0.211; 2 hs after the irradiation, Rate for inhibition (ultraviolet erythema; 10 mg/kg orally): 74.9; 3 hs after the irradiation, Average ± standard error (ultraviolet erythema; 10 mg/kg orally): 2.3 ± 0.333; 3 hs after the irradiation, Rate for inhibition (ultraviolet erythema; 10 mg/kg orally): 18.7; 5 hs after the irradiation, Average ± standard error (ultraviolet erythema; 10 mg/kg orally): 2.83 ± 0.167; 5 hs after the irradiation, Rate for inhibition (ultraviolet erythema; 10 mg/kg orally): 0; inhibition effect for ultraviolet erythema compared with IM and DF (ultraviolet erythema; relative to IM and DF): equal inhibition effect for ultraviolet erythema to that of IM and DF
CC(=O)OCCOC(=O)Cc1ccccc1Nc1c(Cl)cccc1Cl [Compound 16, 2-(Acetoxy)ethyl-2-(2,6-dichloroanilino)-phenylacetate] | 20 | – | 93.7 | 610 | almost equal anti-inflammatory activity to DF | –
